Like-named read-outs stand apart in the source and are kept apart here.
How the values were obtained:
[1] = tested on: Pyricularia oryzae Carvara KA301; test: whole plant or invertebrate; format: in vivo; conditions: for RCB control value (C.V.): rice blast; for pest or weed control at 2 ppm / pest or weed control at 10 ppm / pest or weed control at 50 ppm / pest or weed control at 100 ppm: Pyricularia oryzae, read-out: RCB control value (C.V.)
[2] = tested on: Botrytis cinerae; test: Fungicidal activity against cucumber gray mold rot (CGM) disease, control value; format: in vivo; conditions: 100 ppm; for pest or weed control at 100 ppm: Botrytis, read-out: CGM control value (C.V.)
[3] = tested on: Phytophthora infestans; test: whole plant or invertebrate; format: in vivo; conditions: for TLB control value (C.V.): tomato late blight; for pest or weed control at 2 ppm / pest or weed control at 10 ppm / pest or weed control at 50 ppm / pest or weed control at 100 ppm: Phytophthora infestans, in Solanum lycopersicum, read-out: TLB control value (C.V.)
[4] = tested on: Puccinia recondita; test: Fungicidal activity against wheat leaf rust (WLR) disease, control value; format: in vivo; conditions: for pest or weed control at 2 ppm / pest or weed control at 10 ppm / pest or weed control at 50 ppm / pest or weed control at 100 ppm: read-out: WLR control value (C.V.)
[5] = tested on: Erysiphae graminis; test: Fungicidal activity against barley powdery mildew (BPM) disease, control value; format: in vivo; conditions: for pest or weed control at 2 ppm / pest or weed control at 10 ppm / pest or weed control at 50 ppm / pest or weed control at 100 ppm: 168 h, read-out: BPM control value (C.V.)
[6] = tested on: Rhizoctonia solani AG-1; test: Fungicidal activity against rice sheath blight (RSB) disease, control value; conditions: for RSB control value (C.V.): rice sheath blight; for pest or weed control at 100 ppm / pest or weed control at 2 ppm / pest or weed control at 10 ppm / pest or weed control at 50 ppm: Rhizoctonia solani, AG1, in Oryza sativa, read-out: RSB control value (C.V.)
[7] = Hordeum vulgare, 2 ppm, barley powdery mildew
[8] = Hordeum vulgare, 10 ppm, barley powdery mildew
[9] = Hordeum vulgare, 50 ppm, barley powdery mildew
[10] = Hordeum vulgare, 100 ppm, barley powdery mildew

| SMILES | pest or weed control at 2 ppm [1] [%] | pest or weed control at 10 ppm [1] [%] | pest or weed control at 50 ppm [1] [%] | pest or weed control at 100 ppm [1] [%] | pest or weed control at 100 ppm ([2]; cucumber gray mold rot) [%] | pest or weed control at 2 ppm [3] [%] | pest or weed control at 10 ppm [3] [%] | pest or weed control at 50 ppm [3] [%] | pest or weed control at 100 ppm [3] [%] | pest or weed control at 2 ppm ([4]; 2 ppm, wheat leaf rust) [%] | pest or weed control at 10 ppm ([4]; 10 ppm, wheat leaf rust) [%] | pest or weed control at 50 ppm ([4]; 50 ppm, wheat leaf rust) [%] | pest or weed control at 100 ppm ([4]; 100 ppm, wheat leaf rust) [%] | pest or weed control at 2 ppm [5, 7] [%] | pest or weed control at 10 ppm [5, 8] [%] | pest or weed control at 50 ppm [5, 9] [%] | pest or weed control at 100 ppm [5, 10] [%] | pest or weed control at 100 ppm [6] [%] | pest or weed control at 2 ppm [6] [%] | pest or weed control at 10 ppm [6] [%] | also measured |
| --- | --- | --- | --- | --- | --- | --- | --- | --- | --- | --- | --- | --- | --- | --- | --- | --- | --- | --- | --- | --- | --- |
| CO/N=C(/C(=O)OC)c1ccccc1CON=C(C)c1cccc(C=C(Br)Br)c1 [Example 23, methyl-(E)-2-[[[[[2-[3-(2,2-dibromovinyl)phenyl](1-methyl)methylidene]amino]oxy]methyl]phenyl]-2-methoxyiminoacetate] | – | – | – | – | – | – | – | – | – | – | – | – | – | – | – | – | – | – | – | – | RCB control value (C.V.) ([1]; 2 ppm): 90%; RCB control value (C.V.) ([1]; 10 ppm): 97%; RCB control value (C.V.) ([1]; 50 ppm): 100%; RCB control value (C.V.) ([1]; 100 ppm): 100%; CGM control value (C.V.) ([2]; cucumber gray mold rot): 34%; TLB control value (C.V.) ([3]; 50 ppm): 55%; TLB control value (C.V.) ([3]; 100 ppm): 93%; WLR control value (C.V.) ([4]; 100 ppm, wheat leaf rust): 80%; BPM control value (C.V.) ([5]; 2 ppm, barley powdery mildew): 20%; BPM control value (C.V.) ([5]; 10 ppm, barley powdery mildew): 50%; BPM control value (C.V.) ([5]; 50 ppm, barley powdery mildew): 80%; BPM control value (C.V.) ([5]; 100 ppm, barley powdery mildew): 95%; RSB control value (C.V.) ([6]; 2 ppm): 98%; RSB control value (C.V.) ([6]; 10 ppm): 100%; RSB control value (C.V.) ([6]; 50 ppm): 100%; RSB control value (C.V.) ([6]; 100 ppm): 100% |
| CNC(=O)/C(=N/OC)c1ccccc1COc1cccc(C=C(Cl)Cl)c1 [Example 2, (E)-2-(2-((3-(2,2-dichlorovinyl)phenoxy)methyl)phenyl)-2-methoxyimino-N-methylacetamide] | 90 | 97 | 100 | 100 | 34 | 98 | 100 | 100 | 100 | 30 | 90 | 98 | 100 | 100 | 100 | 100 | 100 | 32 | – | – | – |
| CO/N=C(/C(=O)OC)c1ccccc1COc1c(C)cccc1C=C(Br)Br [Example 73, methyl-(E)-2-(2-((2-(2,2-dibromovinyl)-6-methylphenoxy)methyl)phenyl)-2-methoxyiminoacetate] | 70 | 90 | 100 | 100 | – | – | 10 | 90 | 100 | – | – | – | – | – | – | – | – | 10 | – | – | pest or weed control at 100 ppm [2]: 20%; pest or weed control at 2 ppm ([4]; Puccinia recondita, 2 ppm): 100%; pest or weed control at 10 ppm ([4]; Puccinia recondita, 10 ppm): 100%; pest or weed control at 50 ppm ([4]; Puccinia recondita, 50 ppm): 100%; pest or weed control at 100 ppm ([4]; Puccinia recondita, 100 ppm): 100%; pest or weed control at 2 ppm ([5]; 2 ppm): 15%; pest or weed control at 10 ppm ([5]; 10 ppm): 60%; pest or weed control at 50 ppm ([5]; 50 ppm): 93%; pest or weed control at 100 ppm ([5]; 100 ppm): 95% |
| CNC(=O)/C(=N/OC)c1ccccc1COc1cc(C=C(Cl)Cl)ccc1OC [Example 48, (E)-2-(2-((5-(2,2-dichlorovinyl)-2-methoxyphenoxy)methyl)phenyl)-2-methoxyimino-N-methylacetamide] | 90 | 100 | 100 | 100 | 50 | 70 | 99 | 100 | 100 | 100 | 100 | 100 | 100 | 99 | 100 | 100 | 100 | 100 | 95 | 98 | pest or weed control at 50 ppm [6]: 100% |
| CNC(=O)/C(=N/OC)c1ccccc1COc1c(C)cccc1C=C(Cl)Cl [Example 50, (E)-2-(2-((2-(2,2-dichlorovinyl)-6-methylphenoxy)methyl)phenyl)-2-methoxyimino-N-methylacetamide] | 85 | 98 | 100 | 100 | 20 | 90 | 99 | 100 | 100 | 100 | 100 | 100 | 100 | 100 | 100 | 100 | 100 | 100 | 95 | 98 | pest or weed control at 50 ppm [6]: 100% |
| CNC(=O)/C(=N/OC)c1ccccc1COc1ccc(C=C(Cl)Cl)cc1Br [Example 54, (E)-2-(2-((2-bromo-4-(2,2-dichlorovinyl)phenoxy)methyl)phenyl)-2-methoxyimino-N-methylacetamide] | 30 | 90 | 100 | 100 | – | 93 | 95 | 100 | 100 | – | – | – | – | – | – | – | – | 100 | 90 | 98 | pest or weed control at 100 ppm [2]: 65%; pest or weed control at 2 ppm ([4]; Puccinia recondita, 2 ppm): 100%; pest or weed control at 10 ppm ([4]; Puccinia recondita, 10 ppm): 100%; pest or weed control at 50 ppm ([4]; Puccinia recondita, 50 ppm): 100%; pest or weed control at 100 ppm ([4]; Puccinia recondita, 100 ppm): 100%; pest or weed control at 2 ppm ([5]; 2 ppm): 100%; pest or weed control at 10 ppm ([5]; 10 ppm): 100%; pest or weed control at 50 ppm ([5]; 50 ppm): 100%; pest or weed control at 100 ppm ([5]; 100 ppm): 100%; pest or weed control at 50 ppm [6]: 100% |
| CNC(=O)/C(=N/OC)c1ccccc1COc1ccc(C=C(Cl)Cl)cc1Cl [Example 40, (E)-2-(2-((2-chloro-4-(2,2-dichlorovinyl)phenoxy)methyl)phenyl)-2-methoxyimino-N-methylacetamide] | 100 | 100 | 100 | 100 | 10 | – | – | – | 30 | 100 | 100 | 100 | 100 | 100 | 100 | 100 | 100 | 100 | 100 | 100 | pest or weed control at 50 ppm [6]: 100% |
| CO/N=C(/C(=O)OC)c1ccccc1COc1c(C)cccc1C=C(Cl)Cl [Example 49, methyl-(E)-2-(2-((2-(2,2-dichlorovinyl)-6-methylphenoxy)methyl)phenyl)-2-methoxyiminoacetate] | 93 | 100 | 100 | 100 | 30 | 97 | 99 | 100 | 100 | 100 | 100 | 100 | 100 | 100 | 100 | 100 | 100 | 100 | 95 | 98 | pest or weed control at 50 ppm [6]: 100% |
| CNC(=O)/C(=N/OC)c1ccccc1CON=C(C)c1cccc(C=C(Cl)Cl)c1 [Example 20, (E)-2-[[[[[2-[3-(2,2-dichlorovinyl)phenyl](1-methyl)methylidene]amino]oxy]methyl]phenyl]-2-methoxyimino-N-methylacetamide] | – | – | – | – | – | – | – | – | – | – | – | – | – | – | – | – | – | – | – | – | RCB control value (C.V.) ([1]; 2 ppm): 90%; RCB control value (C.V.) ([1]; 10 ppm): 97%; RCB control value (C.V.) ([1]; 50 ppm): 100%; RCB control value (C.V.) ([1]; 100 ppm): 100%; CGM control value (C.V.) ([2]; cucumber gray mold rot): 74%; TLB control value (C.V.) ([3]; 2 ppm): 98%; TLB control value (C.V.) ([3]; 10 ppm): 100%; TLB control value (C.V.) ([3]; 50 ppm): 100%; TLB control value (C.V.) ([3]; 100 ppm): 100%; WLR control value (C.V.) ([4]; 2 ppm, wheat leaf rust): 30%; WLR control value (C.V.) ([4]; 10 ppm, wheat leaf rust): 90%; WLR control value (C.V.) ([4]; 50 ppm, wheat leaf rust): 98%; WLR control value (C.V.) ([4]; 100 ppm, wheat leaf rust): 100%; BPM control value (C.V.) ([5]; 2 ppm, barley powdery mildew): 100%; BPM control value (C.V.) ([5]; 10 ppm, barley powdery mildew): 100%; BPM control value (C.V.) ([5]; 50 ppm, barley powdery mildew): 100%; BPM control value (C.V.) ([5]; 100 ppm, barley powdery mildew): 100%; RSB control value (C.V.) ([6]; 100 ppm): 75% |

From US8410302B2, “Methoxyimino compounds and fungicide composition comprising same” (Kyung Nong Corporation, priority 2007, dated 2013)
